Test results: ChEMBL document CHEMBL3885881, “DrugMatrix”

Organism: Rattus norvegicus
Test: DrugMatrix - Regimen: Daily Repeat
Assay type: toxicity, organism-based, Sprague-Dawley
Set-up: regimen Daily Repeat, gender Male, age 6-8 weeks
Conditions: in vivo, po, route oral GAVAGE, vehicle .5 % CMC; for ABSOLUTE BASOPHIL / ABSOLUTE EOSINOPHIL / ABSOLUTE LYMPHOCYTE / ABSOLUTE MONOCYTE / ABSOLUTE SEGMENTED NEUTROPHIL / BASOPHIL / EOSINOPHIL / ERYTHROCYTE COUNT / HEMATOCRIT / HEMOGLOBIN / LEUKOCYTE COUNT / LYMPHOCYTE / MEAN CORPUSCULAR HEMOGLOBIN / MEAN CORPUSCULAR HEMOGLOBIN CONCENTRATION / MEAN CORPUSCULAR VOLUME / MONOCYTE / NEUTROPHIL / NUCLEATED RED BLOOD CELLS / PLATELET COUNT: tissue Blood; for ALANINE AMINOTRANSFERASE / ALBUMIN / ALKALINE PHOSPHATASE / ASPARTATE AMINOTRANSFERASE / BLOOD UREA NITROGEN / CARBON DIOXIDE / CHLORIDE / CHOLESTEROL / CREATINE PHOSPHOKINASE / CREATININE / GLUCOSE / LACTATE DEHYDROGENASE / LIPASE / PHOSPHORUS / POTASSIUM / SODIUM / TOTAL BILIRUBIN / TOTAL PROTEIN / URIC ACID: tissue Plasma
[1] = 0 mg/kg, 72 h, dose level Control, time 3 day
[2] = 0 mg/kg, 120 h, dose level Control, time 5 day
[3] = 20 mg/kg, 72 h, dose level Low, time 3 day

CC(C)(C)NC(=O)[C@@H]1C[C@@H]2CCCC[C@@H]2CN1C[C@@H](O)[C@H](Cc1ccccc1)NC(=O)[C@H](CC(N)=O)NC(=O)c1ccc2ccccc2n1
ABSOLUTE BASOPHIL [1]: 0 CELLS/uL
ABSOLUTE EOSINOPHIL [1]: 222.83 CELLS/uL
ABSOLUTE LYMPHOCYTE [1]: 14453 CELLS/uL
ABSOLUTE MONOCYTE [1]: 0 CELLS/uL
ABSOLUTE SEGMENTED NEUTROPHIL [1]: 1490.83 CELLS/uL
BASOPHIL [1]: 0%
EOSINOPHIL [1]: 1.33%
ERYTHROCYTE COUNT [1]: 5.76 x10E6/uL
HEMATOCRIT [1]: 36.52%
HEMOGLOBIN [1]: 13.45 G/DL
LEUKOCYTE COUNT [1]: 16.17 x10E3/uL
LYMPHOCYTE [1]: 89.33%
MEAN CORPUSCULAR HEMOGLOBIN [1]: 23.37 pg
MEAN CORPUSCULAR HEMOGLOBIN CONCENTRATION [1]: 36.85 G/DL
MEAN CORPUSCULAR VOLUME [1]: 63.47 fL
MONOCYTE [1]: 0%
NEUTROPHIL [1]: 9.33%
NUCLEATED RED BLOOD CELLS [1]: 0 /100WBC
PLATELET COUNT [1]: 1239.5 x10E3/uL
ALANINE AMINOTRANSFERASE [1]: 43.83 u/L
ALBUMIN [1]: 4.27 G/DL
ALKALINE PHOSPHATASE [1]: 398.83 u/L
ASPARTATE AMINOTRANSFERASE [1]: 81.17 u/L
BLOOD UREA NITROGEN [1]: 17.67 mg/dL
CARBON DIOXIDE [1]: 27.5 mmol/L
CHLORIDE [1]: 99.17 MEQ/L
CHOLESTEROL [1]: 74 mg/dL
CREATINE PHOSPHOKINASE [1]: 331.5 u/L
CREATININE [1]: 0.2 mg/dL
GLUCOSE [1]: 171.33 mg/dL
LACTATE DEHYDROGENASE [1]: 241.67 u/L
LIPASE [1]: 9.5 u/L
PHOSPHORUS [1]: 12.25 mg/dL
POTASSIUM [1]: 6.33 MEQ/L
SODIUM [1]: 141.28 MEQ/L
TOTAL BILIRUBIN [1]: 0.15 mg/dL
TOTAL PROTEIN [1]: 5.98 G/DL
URIC ACID [1]: 1.63 mg/dL
ABSOLUTE BASOPHIL [2]: 0 CELLS/uL
ABSOLUTE EOSINOPHIL [2]: 148.67 CELLS/uL
ABSOLUTE LYMPHOCYTE [2]: 16020.5 CELLS/uL
ABSOLUTE MONOCYTE [2]: 29.17 CELLS/uL
ABSOLUTE SEGMENTED NEUTROPHIL [2]: 1468.33 CELLS/uL
BASOPHIL [2]: 0%
EOSINOPHIL [2]: 1%
ERYTHROCYTE COUNT [2]: 5.78 x10E6/uL
HEMATOCRIT [2]: 35.77%
HEMOGLOBIN [2]: 13.4 G/DL
LEUKOCYTE COUNT [2]: 17.67 x10E3/uL
LYMPHOCYTE [2]: 90.5%
MEAN CORPUSCULAR HEMOGLOBIN [2]: 23.22 pg
MEAN CORPUSCULAR HEMOGLOBIN CONCENTRATION [2]: 37.47 G/DL
MEAN CORPUSCULAR VOLUME [2]: 61.92 fL
MONOCYTE [2]: 0.17%
NEUTROPHIL [2]: 8.33%
NUCLEATED RED BLOOD CELLS [2]: 0.17 /100WBC
PLATELET COUNT [2]: 1255.5 x10E3/uL
ALANINE AMINOTRANSFERASE [2]: 46.5 u/L
ALBUMIN [2]: 4.38 G/DL
ALKALINE PHOSPHATASE [2]: 336 u/L
ASPARTATE AMINOTRANSFERASE [2]: 76.5 u/L
BLOOD UREA NITROGEN [2]: 20 mg/dL
CARBON DIOXIDE [2]: 27.5 mmol/L
CHLORIDE [2]: 101 MEQ/L
CHOLESTEROL [2]: 71.33 mg/dL
CREATINE PHOSPHOKINASE [2]: 231.83 u/L
CREATININE [2]: 0.37 mg/dL
GLUCOSE [2]: 168.83 mg/dL
LACTATE DEHYDROGENASE [2]: 174 u/L
LIPASE [2]: 8.67 u/L
PHOSPHORUS [2]: 11.48 mg/dL
POTASSIUM [2]: 6.82 MEQ/L
SODIUM [2]: 143.8 MEQ/L
TOTAL BILIRUBIN [2]: 0.2 mg/dL
TOTAL PROTEIN [2]: 5.98 G/DL
URIC ACID [2]: 1.83 mg/dL
ABSOLUTE BASOPHIL [3]: 0 CELLS/uL
ABSOLUTE EOSINOPHIL [3]: 240.67 CELLS/uL
ABSOLUTE LYMPHOCYTE [3]: 11319.33 CELLS/uL
ABSOLUTE MONOCYTE [3]: 32 CELLS/uL
ABSOLUTE SEGMENTED NEUTROPHIL [3]: 1141.33 CELLS/uL
BASOPHIL [3]: 0%
EOSINOPHIL [3]: 1.67%
ERYTHROCYTE COUNT [3]: 5.23 x10E6/uL
HEMATOCRIT [3]: 32.43%
HEMOGLOBIN [3]: 12.37 G/DL
LEUKOCYTE COUNT [3]: 12.73 x10E3/uL
LYMPHOCYTE [3]: 89%
MEAN CORPUSCULAR HEMOGLOBIN [3]: 23.63 pg
MEAN CORPUSCULAR HEMOGLOBIN CONCENTRATION [3]: 38.13 G/DL
MEAN CORPUSCULAR VOLUME [3]: 62 fL
MONOCYTE [3]: 0.33%
NEUTROPHIL [3]: 9%
NUCLEATED RED BLOOD CELLS [3]: 0 /100WBC
PLATELET COUNT [3]: 1264.33 x10E3/uL
ALANINE AMINOTRANSFERASE [3]: 43.67 u/L
ALBUMIN [3]: 4.1 G/DL
ALKALINE PHOSPHATASE [3]: 371.33 u/L
ASPARTATE AMINOTRANSFERASE [3]: 73.67 u/L
BLOOD UREA NITROGEN [3]: 14.33 mg/dL
CARBON DIOXIDE [3]: 25.67 mmol/L
CHLORIDE [3]: 102 MEQ/L
CHOLESTEROL [3]: 79.67 mg/dL
CREATINE PHOSPHOKINASE [3]: 319.67 u/L
CREATININE [3]: 0.15 mg/dL
GLUCOSE [3]: 144.67 mg/dL
LACTATE DEHYDROGENASE [3]: 139.33 u/L
LIPASE [3]: 8 u/L
PHOSPHORUS [3]: 12.8 mg/dL
POTASSIUM [3]: 6.81 MEQ/L
SODIUM [3]: 142.53 MEQ/L
TOTAL BILIRUBIN [3]: 0.2 mg/dL
TOTAL PROTEIN [3]: 5.67 G/DL
URIC ACID [3]: 1.47 mg/dL
